Assay results published in patent US20210254056A1, “IDENTIFICATION AND TARGETED MODULATION OF GENE SIGNALING NETWORKS” (CAMP4 THERAPEUTICS CORPORATION, priority 2017, published 2021).

Test system: hepatocytes
Test: RNA-seq of hepatocytes treated with Phase III failure compounds
Conditions: hepatocytes
Description: RNA-seq was performed to determine the effects of the compounds on hepatocytes.
Significance was determined by the criteria of FPKM≥0.5, a log 2(fold-change)≥1, and a […].

SMILES: O=P(O)(NCCCl)NCCCl [Palifosfamide]
- significant modulation of expression of disease genes (RNA-seq, q≤0.05, genes in the value or listed in the block): significantly (q≤0.05) modulate expression of RMRP and FAM111B
- RNA-seq results: A1BG expression (gene A1BG): −0.13
- RNA-seq results: AGTR1 expression (gene AGTR1): −0.67
- RNA-seq results: AGXT expression (gene AGXT): 0.30
- RNA-seq results: AHI1 expression (gene AHI1): 0.06
- RNA-seq results: AMPD3 expression (gene AMPD3): −0.01
- RNA-seq results: AMT expression (gene AMT): 0.13
- RNA-seq results: ANGPTL3 expression (gene ANGPTL3): −0.28
- RNA-seq results: ANKS4B expression (gene ANKS4B): −0.16
- RNA-seq results: ANKS6 expression (gene ANKS6): 0.12
- RNA-seq results: ANPEP expression (gene ANPEP): −0.12
- RNA-seq results: AOC2 expression (gene AOC2): 0.34
- RNA-seq results: APOA2 expression (gene APOA2): −0.53
- RNA-seq results: APOA5 expression (gene APOA5): 0.00
- RNA-seq results: APOB expression (gene APOB): −0.23
- RNA-seq results: COG5 expression (gene COG5): −0.03
- RNA-seq results: COG6 expression (gene COG6): 0.08
- RNA-seq results: COL1A1 expression (gene COL1A1): 0.48
- RNA-seq results: COX6A1 expression (gene COX6A1): −0.07
- RNA-seq results: CP expression (gene CP): 0.16
- RNA-seq results: CPS1 expression (gene CPS1): 0.84
- RNA-seq results: CPT1A expression (gene CPT1A): 1.06
- RNA-seq results: CPT2 expression (gene CPT2): 0.33
- RNA-seq results: CROT expression (gene CROT): −0.69
- RNA-seq results: CSPP1 expression (gene CSPP1): 0.17
- RNA-seq results: CTC1 expression (gene CTC1): 0.2
- RNA-seq results: CTDSP2 expression (gene CTDSP2): 0.56
- RNA-seq results: CTH expression (gene CTH): 1.87
- RNA-seq results: CTNS expression (gene CTNS): 0.42
- RNA-seq results: CTSF expression (gene CTSF): 0.68
- RNA-seq results: CTSK expression (gene CTSK): −0.49
- RNA-seq results: CYB5A expression (gene CYB5A): 0.43
- RNA-seq results: CYB5R3 expression (gene CYB5R3): 0.05
- RNA-seq results, CYP2B6 expression (gene CYP2B6): 0.03
- RNA-seq results: CYP2B6 expression (gene CYP2B6): 0.58
- RNA-seq results, CYP2C19 expression (gene CYP2C19): 0.12
- RNA-seq results: CYP2C19 expression (gene CYP2C19): 0.2
- RNA-seq results, CYP2D6 expression (gene CYP2D6): 0.10
- RNA-seq results: CYP2D6 expression (gene CYP2D6): 0.47
- RNA-seq results, CYP3A4 expression (gene CYP3A4): −0.49
- RNA-seq results: CYP3A4 expression (gene CYP3A4): 2.11
- RNA-seq results, CYP7B1 expression (gene CYP7B1): −0.21
- RNA-seq results: CYP7B1 expression (gene CYP7B1): 0.28
- RNA-seq results: CYP27A1 expression (gene CYP27A1): 0.51
- RNA-seq results, CYP39A1 expression (gene CYP39A1): −0.43
- RNA-seq results: CYP39A1 expression (gene CYP39A1): 0.62
- RNA-seq results: DAO expression (gene DAO): −1.2
- RNA-seq results: DBT expression (gene DBT): −0.43
- RNA-seq results: DCDC2 expression (gene DCDC2): −2.5
- RNA-seq results: DCXR expression (gene DCXR): −0.23
- RNA-seq results: FABP1 expression (gene FABP1): −0.17
- RNA-seq results: FADD expression (gene FADD): −0.29
- RNA-seq results: FAM111A expression (gene FAM111A): −0.05
- RNA-seq results: FAM111B expression (gene FAM111B): −2.02
- RNA-seq results: FAN1 expression (gene FAN1): −0.36
- RNA-seq results: FARS2 expression (gene FARS2): −0.34
- RNA-seq results: FASLG expression (gene FASLG): −1.44
- RNA-seq results: FGA expression (gene FGA): 0.12
- RNA-seq results: FGD1 expression (gene FGD1): −0.27
- RNA-seq results: FGFR2 expression (gene FGFR2): −0.22
- RNA-seq results: FIG4 expression (gene FIG4): 0.06
- RNA-seq results: FIS1 expression (gene FIS1): −0.18
- RNA-seq results: FTCD expression (gene FTCD): 0.32
- RNA-seq results: FTH1 expression (gene FTH1): 0.48
- RNA-seq results: FUCA1 expression (gene FUCA1): 0.24
- RNA-seq results: FXN expression (gene FXN): −0.02
- RNA-seq results: G6PC3 expression (gene G6PC3): −0.25
- RNA-seq results: G6PC expression (gene G6PC): 3.27
- RNA-seq results: G6PD expression (gene G6PD): 0.13
- RNA-seq results: GALK1 expression (gene GALK1): −0.37
- RNA-seq results: GALK2 expression (gene GALK2): −0.25
- RNA-seq results: GALT expression (gene GALT): 0.41
- RNA-seq results: GATA6 expression (gene GATA6): 0.11
- RNA-seq results: GATM expression (gene GATM): −0.46
- RNA-seq results: GBA expression (gene GBA): −0.11
- RNA-seq results: GBE1 expression (gene GBE1): 0.2
- RNA-seq results: GCH1 expression (gene GCH1): −0.38
- RNA-seq results: GCKR expression (gene GCKR): −0.08
- RNA-seq results: GCLC expression (gene GCLC): 0.14
- RNA-seq results: GOSH expression (gene GOSH): −0.4
- RNA-seq results: RRM2B (gene RRM2B): −0.21
- RNA-seq results: RSAD1 (gene RSAD1): 0.12
- RNA-seq results: SAMHD1 (gene SAMHD1): −0.34
- RNA-seq results: SC5D (gene SC5D): −0.37
- RNA-seq results: SCARB1 (gene SCARB1): 0.05
- RNA-seq results: SCN9A (gene SCN9A): −0.07
- RNA-seq results: SDCCAG8 (gene SDCCAG8): −0.12
- RNA-seq results: SEPN1 (gene SEPN1): 0.00
- RNA-seq results: SERAC1 (gene SERAC1): −0.07
- RNA-seq results: SERPINA1 (gene SERPINA1): −0.19
- RNA-seq results: SERPING1 (gene SERPING1): −0.31
- RNA-seq results: SERPINI1 (gene SERPINI1): −0.28
- RNA-seq results: SETBP1 (gene SETBP1): 0.11
- RNA-seq results: SFXN4 (gene SFXN4): −0.14
- RNA-seq results: SLC10A1 (gene SLC10A1): −0.40
- RNA-seq results: SLC10A3 (gene SLC10A3): 0.53
- RNA-seq results: SLC10A5 (gene SLC10A5): −0.06
- RNA-seq results: SLC10A7 (gene SLC10A7): −0.46
- RNA-seq results: SLC11A2 (gene SLC11A2): −0.01
- RNA-seq results: SLC19A1 (gene SLC19A1): −0.10
- RNA-seq results: SLC19A2 (gene SLC19A2): −0.05
- RNA-seq results: SLC19A3 (gene SLC19A3): −0.26
- RNA-seq results: SLC22A1 (gene SLC22A1): −0.18
- RNA-seq results: SLC22A5 (gene SLC22A5): 0.03
- RNA-seq results: SLC25A1 (gene SLC25A1): 0.36
- RNA-seq results: SLC25A10 (gene SLC25A10): 0.09
- RNA-seq results: SLC25A12 (gene SLC25A12): 0.10
- RNA-seq results: SLC25A13 (gene SLC25A13): −0.06
- RNA-seq results: SLC25A15 (gene SLC25A15): 0.04
- RNA-seq results: SLC25A19 (gene SLC25A19): −0.02
- RNA-seq results: SLC25A20 (gene SLC25A20): −0.21
- RNA-seq results: SLC25A29 (gene SLC25A29): 0.39
- RNA-seq results: SLC25A32 (gene SLC25A32): −0.19
